Experimental data: publication PMC10535856, “CD4^+ T Cell Responses to Toxoplasma gondii Are a Double-Edged Sword” (Vaccines, 2023)
pIC50: −log10 of the molar value. Where no end group is shown, it is not given here.

What was measured:
[1] = test system: uninfected HLA-A*11:01 transgenic mice; assay: Mortality and tolerability after boost immunization; type: in vivo, mouse
I-A^b [2] = molecular target: T1, I-A^b (Mus musculus, UniProt P14434+P14483); assay: Competitive peptide binding to I-A^b; conditions: competitive binding study, procedure of ref 51; 'bound weakly'
T1 sequence (P14434 24-256): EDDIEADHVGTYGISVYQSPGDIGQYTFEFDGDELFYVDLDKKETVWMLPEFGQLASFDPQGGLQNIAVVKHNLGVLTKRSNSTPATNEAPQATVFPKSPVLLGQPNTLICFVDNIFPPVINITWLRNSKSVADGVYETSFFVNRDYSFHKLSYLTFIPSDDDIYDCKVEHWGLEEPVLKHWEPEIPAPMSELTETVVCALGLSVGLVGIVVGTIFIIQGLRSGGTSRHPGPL
T1 sequence (P14483 28-265): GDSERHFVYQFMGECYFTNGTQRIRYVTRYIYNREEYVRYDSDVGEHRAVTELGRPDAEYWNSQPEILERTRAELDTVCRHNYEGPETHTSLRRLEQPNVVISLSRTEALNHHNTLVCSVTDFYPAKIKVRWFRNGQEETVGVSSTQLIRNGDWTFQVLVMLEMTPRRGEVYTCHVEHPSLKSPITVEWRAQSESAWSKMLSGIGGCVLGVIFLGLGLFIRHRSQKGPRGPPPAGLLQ

[3] = test system: Toxoplasma gondii tachyzoites and encysted bradyzoites; conditions: cited from earlier work
I-A^b [4] = molecular target: T1, I-A^b; design: method as in PMID 7895164, PMID 32763137; conditions: cited from earlier work
CD4^+ T cells = conditions: in vitro human PBMCs and in vivo mice; cited from earlier work
From the text: Vaccines that are composed of polypeptides that elicit epitope-restricted CD4^+ and CD8^+ T cells have the potential to induce an immune response against human toxoplasmic infection in humans. We are building a rational “immunosense” approach that utilizes epitope selection for peptides that can be presented by human major histocompatibility complexes (MHCs) to elicit protective CD8^+ and CD4^+ T cells. We have made considerable efforts to iden ...

With AVEIHRPVPGTAPPS [AS15, AVEIHRPVPGTAPPS] the “Harmful response to single components” value ([1]; AS15 or GLA-SE alone) was “neither AS15 nor GLA-SE alone elicit this harmful response”, the “Overall effect in summary cartoon” value ([1]; Figure S1, single components) was “No effect” and the pIC50 (I-A^b [2]) was 6.38.

In the case of `CCc1nc(N)nc(N)c1-c1ccc(Cl)cc1` [Pyrimethamine], the “Activity against actively replicating tachyzoites” value [3] is given as “effective against actively replicating tachyzoites” and the “Elimination of encysted bradyzoites” value [3] is given as “cannot eliminate encysted bradyzoites”.

For AKFVAAWTLKAAA [PADRE], the “Affinity to I-A^b” value (I-A^b [4]) is given as “relatively high affinity” and the “Generation of responsive CD4^+ T cells” value (CD4^+ T cells) is given as “contributes to the generation of responsive CD4^+ T cells”.

For `Nc1ccc(S(=O)(=O)Nc2ncccn2)cc1` [sulfadiazine], the “Activity against actively replicating tachyzoites” value [3] is given as “effective against actively replicating tachyzoites” and the “Elimination of encysted bradyzoites” value [3] is given as “cannot eliminate encysted bradyzoites”.
